Assay results published in patent US11807607B1, “Aminocarbazole compounds as antibacterial agents” (KING FAISAL UNIVERSITY, priority 2023, dated 2023).
In brackets after ≈: the same amount, converted by molar mass. Where two headings read alike, the source gives them in different places.

What was measured:
DNA gyrase from E. coli = biological target: T1, DNA gyrase from E. coli (Escherichia coli, UniProt P0AES4+P0AES6); experiment: Inspiralis E. coli DNA gyrase inhibition assay; type: biochemical
T1 construct: purchased Inspiralis
T1 sequence (P0AES4 whole entry, one chain of several): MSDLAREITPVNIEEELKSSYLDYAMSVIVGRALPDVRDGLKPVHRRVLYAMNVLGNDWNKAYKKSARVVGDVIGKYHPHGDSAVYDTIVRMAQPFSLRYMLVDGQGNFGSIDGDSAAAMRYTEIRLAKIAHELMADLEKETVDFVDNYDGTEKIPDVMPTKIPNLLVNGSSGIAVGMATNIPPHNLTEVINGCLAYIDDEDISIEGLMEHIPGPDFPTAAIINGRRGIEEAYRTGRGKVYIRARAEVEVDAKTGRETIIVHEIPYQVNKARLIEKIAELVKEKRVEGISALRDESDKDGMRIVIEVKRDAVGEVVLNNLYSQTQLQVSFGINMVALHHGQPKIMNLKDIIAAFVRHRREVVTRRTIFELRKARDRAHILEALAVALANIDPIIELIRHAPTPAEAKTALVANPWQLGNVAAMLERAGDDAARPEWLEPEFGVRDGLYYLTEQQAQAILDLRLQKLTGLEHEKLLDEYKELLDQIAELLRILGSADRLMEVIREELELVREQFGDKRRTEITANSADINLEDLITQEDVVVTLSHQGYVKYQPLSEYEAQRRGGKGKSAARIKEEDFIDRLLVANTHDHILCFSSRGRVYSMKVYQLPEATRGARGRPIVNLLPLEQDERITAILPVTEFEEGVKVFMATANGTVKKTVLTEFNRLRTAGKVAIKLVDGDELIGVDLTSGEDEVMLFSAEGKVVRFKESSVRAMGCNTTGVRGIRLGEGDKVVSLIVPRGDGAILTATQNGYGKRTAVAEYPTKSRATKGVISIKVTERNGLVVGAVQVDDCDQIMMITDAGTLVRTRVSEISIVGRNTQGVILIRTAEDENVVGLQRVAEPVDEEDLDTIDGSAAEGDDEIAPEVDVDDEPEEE
Method: Inhibitory potencies were investigated utilizing the Inspiralis assay on streptavidin-coated 96-well microtiter plates. First, the plates were rehydrated with buffer (20 mM Tris-HCl with pH 7.6, 0.01% w/v BSA, 0.05% v/v Tween 20, 137 mM NaCl) and the biotinylated oligonucleotide was then immobilized. After washing off the unbound oligonucleotide, the enzyme test was performed. […] Reaction solutions were incubated at 37° C. for 30 min. After that, the TF buffer (50 mM NaOAc with pH 5.0, 50 mM NaCl and 50 mM MgCl2) was added to terminate the enzymatic reaction. After additional incubation for 30 min at rt, during which biotinoligonucleotide-plasmid triplex was formed, the unbound plasmid was washed off using TF buffer and SybrGOLD in T10 buffer (10 mM Tris HCl with pH 8.0 and 1 mM EDTA) was added. The fluorescence was measured with a microplate reader (BioTek Synergy H4, excitation: 485 nm, emission: 535 nm). Initial screening was done at 100 or 10 μM concentration of inhibitors. […] GraphPad Prism software was used to calculate the IC50 values. The result is given as the average value of three independent measurements.

[1] = tested on: Gram-positive and Gram-negative bacterial strains, drug sensitive and drug resistant; experiment: In vitro antibacterial activity evaluation, whole strain panel
[2] = tested on: Mycobacterium tuberculosis H37Rv strain; experiment: Anti-tubercular alamar blue microplate MIC assay; type: cell-based; settings: 168 h, M. tuberculosis H37Rv, 7 days at 37° C., read-out: anti-mycobacterial activity (MIC)
[3] = tested on: Enterococcus faecium ATCC 51559 (VRE resistant); experiment: Antibacterial MIC, CLSI M07-A10 dilution susceptibility test; type: cell-based
[4] = tested on: Staphylococcus aureus ATCC BAA-1556 (MERSA resistant); experiment: as above; type: cell-based; settings: ATCCBAA1556
[5] = tested on: Pseudomonas aeruginosa MTCC 741; experiment: as above; type: cell-based; settings: MTCC741
[6] = tested on: Enterococcus faecium ATCC 35667; experiment: as above; type: cell-based; settings: ATCC35667
[7] = tested on: Escherichia coli MTCC 443; experiment: as above; type: cell-based; settings: MTCC443
[8] = tested on: Bacillus subtilis MTCC 441; experiment: as above; type: cell-based; settings: MTCC441
[9] = tested on: Klebsiella pneumonia MTCC 618; experiment: as above; type: cell-based; settings: Klebsiella pneumoniae, MTCC618
[10] = tested on: Staphylococcus epidermidis; experiment: as above; type: cell-based
[11] = tested on: Staphylococcus aureus ATCC 29213; experiment: as above; type: cell-based; settings: ATCC29213

CNc1cc(F)cc2c1[nH]c1ccc(-c3cccc(CC(=O)O)c3)cc12 [Compound 1, 2-(3-(6-fluoro-8-(methylamino)-9H-carbazol-3-yl)phenyl)acetic acid]
IC50 (DNA gyrase from E. coli): 80 nM | antibacterial activity (in words) [1]: promising antibacterial activity | MIC [2]: 2 µg/mL (≈ 5.74 µM)

CNc1cc(F)cc2c1[nH]c1ccc(Nc3cccc(C(=O)O)c3)cc12 [Compound 6, 3-((6-fluoro-8-(methylamino)-9H-carbazol-3-yl)amino)benzoic acid]
MIC ([3]; Enterococcus faecium ATCC 51559 (VRE resistant), read-out: MIC): 2 µg/mL (≈ 5.72 µM) | MIC [4]: 1 µg/mL (≈ 2.86 µM) | MIC ([5]; Pseudomonas aeruginosa MTCC 741, read-out: MIC): 16 µg/mL (≈ 45.8 µM) | MIC ([6]; Enterococcus faecium ATCC 35667, read-out: MIC): 1 µg/mL (≈ 2.86 µM) | MIC ([7]; Escherichia coli MTCC 443, read-out: MIC): 32 µg/mL (≈ 91.6 µM) | MIC ([8]; Bacillus subtilis MTCC 441, read-out: MIC): 0.75 µg/mL (≈ 2.15 µM) | MIC ([9]; Klebsiella pneumonia MTCC 618, read-out: MIC): 1 µg/mL (≈ 2.86 µM) | MIC ([10]; read-out: MIC): 0.5 µg/mL (≈ 1.43 µM) | MIC [11]: 0.75 µg/mL (≈ 2.15 µM)

CN[C@H](CC(C)C)C(=O)N[C@H]1C(=O)N[C@@H](CC(N)=O)C(=O)N[C@H]2C(=O)N[C@H]3C(=O)N[C@H](C(=O)N[C@H](C(=O)O)c4cc(O)cc(O)c4-c4cc3ccc4O)[C@H](O)c3ccc(c(Cl)c3)Oc3cc2cc(c3O[C@@H]2O[C@H](CO)[C@@H](O)[C@H](O)[C@H]2O[C@H]2C[C@](C)(N)[C@H](O)[C@H](C)O2)Oc2ccc(cc2Cl)[C@H]1O [Vancomycin, reference compound]
MIC ([3]; Enterococcus faecium): > 128 µg/mL | MIC ([5]; Pseudomonas aeruginosa): > 128 µg/mL | MIC ([6]; Enterococcus faecium): 0.5 µg/mL (≈ 0.345 µM) | MIC ([7]; Escherichia coli): > 128 µg/mL | MIC ([8]; Bacillus subtilis): 0.5 µg/mL (≈ 0.345 µM) | MIC [9]: > 128 µg/mL | MIC [10]: 1 µg/mL (≈ 0.69 µM)
